The subject of this assay is CD8F1 mice, subcutaneous mammary adenocarcinoma, T/C%. Briefly: NCI In Vivo Anticancer Drug Screen. Data for tumor model Mammary Adenocarcinoma CD8F1 (subcutaneous) in CD8F1. Conditions: higher = larger tumour. A digest of the protocol: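 Compound-treated versus vehicle-treated mice with transplantable tumors; survival or tumor size compared as T/C.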
[1] abbreviates: endpoint: median tumor weight (est.), dose: 12.5 mg/kg/injection, schedule: Q07DX005 (ip), vehicle: saline with Tween-80.
[2] abbreviates: endpoint: median tumor weight (est.), dose: 25.0 mg/kg/injection, schedule: Q07DX005 (ip), vehicle: saline with Tween-80.
Setting [3] is: endpoint: median tumor weight (est.), dose: 50.0 mg/kg/injection, schedule: Q07DX005 (ip), vehicle: saline with Tween-80.
Where [4] appears, read: endpoint: median tumor weight (est.), dose: 100.0 mg/kg/injection, schedule: Q07DX005 (ip), vehicle: saline with Tween-80.
Where [5] appears, read: endpoint: median tumor weight (est.), dose: 200.0 mg/kg/injection, schedule: Q07DX005 (ip), vehicle: saline with Tween-80.

SMILES strings stand for the structures. Values joined by “and” are separate entries in the source; they are usually repeats but may differ in a detail not shown here. Equal entries are not always repeated. Records with an inconclusive call do not appear.

For the molecule `CC(C)NCC(O)COc1ccc(O)c(O)c1` (stereo unspecified), the T/C was 84 % of control (endpoint: median tumor weight change, dose: 1.5 mg/kg/injection, schedule: Q01DX001 (ip), vehicle: saline); 89 % of control and 105 % of control (endpoint: median tumor weight change, dose: 6.0 mg/kg/injection, schedule: Q01DX001 (ip), vehicle: saline); 72 % of control and 97 % of control (endpoint: median tumor weight change, dose: 12.0 mg/kg/injection, schedule: Q01DX001 (ip), vehicle: saline); 102 % of control (endpoint: median tumor weight change, dose: 24.0 mg/kg/injection, schedule: Q01DX001 (ip), vehicle: saline); 77 % of control and 96 % of control (endpoint: median tumor weight change, dose: 125.0 mg/kg/injection, schedule: Q01DX001 (ip), vehicle: saline).
With `COC1/C=C/O[C@@]2(C)Oc3c(C)c(O)c4c(O)c(cc(O)c4c3C2=O)NC(=O)/C(C)=C\C=C\[C@H](C)C(O)[C@@H](C)[C@@H](O)[C@@H](C)[C@H](OC(C)=O)[C@@H]1C` (stereo partly specified), the T/C is, setting by setting: (endpoint: median tumor weight change, dose: 31.25 mg/kg/injection, schedule: Q01DX001 (ip), vehicle: saline with Tween-80) 87 % of control; (endpoint: median tumor weight change, dose: 62.5 mg/kg/injection, schedule: Q01DX001 (ip), vehicle: saline with Tween-80) 82 % of control; (endpoint: median tumor weight change, dose: 125.0 mg/kg/injection, schedule: Q01DX001 (ip), vehicle: saline with Tween-80) 98 % of control; (endpoint: median tumor weight change, dose: 250.0 mg/kg/injection, schedule: Q01DX001 (ip), vehicle: saline with Tween-80) 153 % of control; (endpoint: median tumor weight change, dose: 500.0 mg/kg/injection, schedule: Q01DX001 (ip), vehicle: saline with Tween-80) 83 % of control.
As for `O=Cc1ccc(C(Cl)(Cl)Cl)cc1`, the T/C by setting is: under setting [1], 94 % of control; under setting [2], 55 % of control; under setting [3], 97 % of control; under setting [4], 68 % of control; under setting [5], 81 % of control.
Consider `N/C(=N\OC(=O)Nc1ccc(CSc2ccc(Cl)cc2)o1)c1ccccn1`, for which the T/C (endpoint: median tumor weight change, dose: 62.0 mg/kg/injection, schedule: Q01DX001 (ip), vehicle: Klucel (hydroxypropylcellulose) (HPC)) is 64 % of control; the T/C (endpoint: median tumor weight change, dose: 125.0 mg/kg/injection, schedule: Q01DX001 (ip), vehicle: Klucel (hydroxypropylcellulose) (HPC)) was 99 % of control; the T/C (endpoint: median tumor weight change, dose: 250.0 mg/kg/injection, schedule: Q01DX001 (ip), vehicle: Klucel (hydroxypropylcellulose) (HPC)) was 80 % of control.
Regarding `CC(C)[C@](O)(C(=O)OCC1=CC[N+]2([O-])CC[C@@H](O)[C@@H]12)[C@H](C)O` (stereo partly specified), the T/C is 81 % of control (endpoint: median tumor weight (est.), dose: 25.0 mg/kg/injection, schedule: Q07DX005 (ip), vehicle: water); 67 % of control (endpoint: median tumor weight (est.), dose: 50.0 mg/kg/injection, schedule: Q07DX005 (ip), vehicle: water); 42 % of control (endpoint: median tumor weight (est.), dose: 100.0 mg/kg/injection, schedule: Q07DX005 (ip), vehicle: water); 79 % of control (endpoint: median tumor weight (est.), dose: 200.0 mg/kg/injection, schedule: Q07DX005 (ip), vehicle: water); 59 % of control (endpoint: median tumor weight (est.), dose: 400.0 mg/kg/injection, schedule: Q07DX005 (ip), vehicle: water).
Turning to `CO[C@H]1C[C@@H]2CC[C@@H](C)[C@@](O)(O2)C(=O)C(=O)N2CCCC[C@H]2C(=O)O[C@H]([C@H](C)C[C@@H]2CC[C@@H](O)[C@H](OC)C2)CC(=O)[C@H](C)C=C(C)[C@@H](O)[C@@H](OC)C(=O)[C@H](C)C[C@H](C)/C=C/C=C/C=C1C`, the T/C was 48 % of control (endpoint: median tumor weight (est.), dose: 3.12 mg/kg/injection, schedule: Q07DX005 (ip), vehicle: clinical formulation); 54 % of control (endpoint: median tumor weight (est.), dose: 3.12 mg/kg/injection, schedule: Q07DX005 (ip), vehicle: saline with Tween-80); 58 % of control (endpoint: median tumor weight (est.), dose: 6.25 mg/kg/injection, schedule: Q07DX005 (ip), vehicle: clinical formulation); 49 % of control (endpoint: median tumor weight (est.), dose: 6.25 mg/kg/injection, schedule: Q07DX005 (ip), vehicle: saline with Tween-80); 77 % of control (endpoint: median tumor weight (est.), dose: 12.5 mg/kg/injection, schedule: Q07DX005 (ip), vehicle: clinical formulation); 29 % of control and 40 % of control under setting [1]. Also, the T/C (endpoint: median tumor weight (est.), dose: 25.0 mg/kg/injection, schedule: Q07DX005 (ip), vehicle: clinical formulation) was 60 % of control; the T/C under setting [2] was 25 % of control and 31 % of control; the T/C (endpoint: median tumor weight (est.), dose: 50.0 mg/kg/injection, schedule: Q07DX005 (ip), vehicle: clinical formulation) is 50 % of control; the T/C under setting [3] is 22 % of control and 23 % of control; the T/C (endpoint: median tumor weight (est.), dose: 100.0 mg/kg/injection, schedule: Q07DX005 (ip), vehicle: clinical formulation) is 63 % of control; the T/C under setting [4] is 14 % of control and 20 % of control. Further, the T/C by setting is: (endpoint: median tumor weight (est.), dose: 200.0 mg/kg/injection, schedule: Q07DX005 (ip), vehicle: clinical formulation) 22 % of control; under setting [5], 10 % of control and 23 % of control.
Regarding `COC1CC(CC2CCC(C)C(C(C)C(=O)O)O2)OC2(OC(C)(C3CCC(C)(C4OC(C5OC(O)(CO)C(C)CC5C)CC4C)O3)CC2C)C1C` (stereo unspecified), the T/C is, setting by setting: (endpoint: median tumor weight (est.), dose: 0.31 mg/kg/injection, schedule: Q07DX005 (ip), vehicle: Klucel (hydroxypropylcellulose) (HPC)) 112 % of control; (endpoint: median tumor weight (est.), dose: 0.63 mg/kg/injection, schedule: Q07DX005 (ip), vehicle: Klucel (hydroxypropylcellulose) (HPC)) 398 % of control; (endpoint: median tumor weight (est.), dose: 1.25 mg/kg/injection, schedule: Q07DX005 (ip), vehicle: Klucel (hydroxypropylcellulose) (HPC)) 390 % of control; (endpoint: median tumor weight (est.), dose: 2.5 mg/kg/injection, schedule: Q07DX005 (ip), vehicle: Klucel (hydroxypropylcellulose) (HPC)) 47 % of control; (endpoint: median tumor weight (est.), dose: 5.0 mg/kg/injection, schedule: Q07DX005 (ip), vehicle: Klucel (hydroxypropylcellulose) (HPC)) 380 % of control; (endpoint: median tumor weight (est.), dose: 10.0 mg/kg/injection, schedule: Q07DX005 (ip), vehicle: Klucel (hydroxypropylcellulose) (HPC)) 323 % of control.
Turning to `C=C(C)C12CC(C)C34OC5(CCCCCCCC(C)C6C(C)C(OC(=O)c7ccccc7)C(O)(C(O)C7(COC(=O)CCCCCCCCCCCCCCC)OC7C3C1O5)C64)O2` (stereo unspecified), the T/C is, setting by setting: (endpoint: mean tumor weight, dose: 25.0 micrograms/kg/injection, schedule: Q01DX009 (ip), vehicle: Klucel (hydroxypropylcellulose) (HPC)) 82 % of control; (endpoint: mean tumor weight, dose: 50.0 micrograms/kg/injection, schedule: Q01DX009 (ip), vehicle: Klucel (hydroxypropylcellulose) (HPC)) 150 % of control; (endpoint: mean tumor weight, dose: 100.0 micrograms/kg/injection, schedule: Q01DX009 (ip), vehicle: Klucel (hydroxypropylcellulose) (HPC)) 114 % of control; (endpoint: mean tumor weight, dose: 200.0 micrograms/kg/injection, schedule: Q01DX009 (ip), vehicle: Klucel (hydroxypropylcellulose) (HPC)) 151 % of control.
Take `Nc1c(C(=O)O)[nH]c(=O)[nH]c1=O`: under setting [1], the T/C is 83 % of control.
Regarding `COc1cccc2c1C(=O)c1c(O)c3c(c(O)c1C2=O)C[C@@](O)(/C(C)=N\NC(=O)CO)C[C@@H]3OC1CC(N)C(O)C(C)O1` (stereo partly specified), the T/C (endpoint: mean tumor weight, dose: 1.0 mg/kg/injection, schedule: Q07DX006 (ip), vehicle: saline) was 110 % of control; the T/C (endpoint: mean tumor weight, dose: 2.0 mg/kg/injection, schedule: Q07DX006 (ip), vehicle: saline) is 207 % of control; the T/C (endpoint: mean tumor weight, dose: 4.0 mg/kg/injection, schedule: Q07DX006 (ip), vehicle: saline) was 64 % of control; the T/C (endpoint: median tumor weight (est.), dose: 1.0 mg/kg/injection, schedule: Q07DX005 (ip), vehicle: saline) is 85 % of control; the T/C (endpoint: median tumor weight (est.), dose: 2.0 mg/kg/injection, schedule: Q07DX005 (ip), vehicle: saline) is 47 % of control; the T/C (endpoint: median tumor weight (est.), dose: 4.0 mg/kg/injection, schedule: Q07DX005 (ip), vehicle: saline) was 104 % of control.
For the molecule `Cc1c2cc[n+](CCN3CCCCC3)cc2c(C)c2c1[nH]c1ccc(O)cc12`, the T/C runs as follows: (endpoint: median tumor weight change, dose: 7.81 mg/kg/injection, schedule: Q01DX001 (ip), vehicle: suspension in saline) 83 % of control; (endpoint: median tumor weight change, dose: 15.6 mg/kg/injection, schedule: Q01DX001 (ip), vehicle: suspension in saline) 102 % of control and 116 % of control.

The values above are taken from PubChem BioAssay AID220 (DTP/NCI, 2004).
